From patent US20050130913A1, “Synergistic insecticidal mixtures” (priority 2002, published 2005)

Key:
Assay type in all cases: in vivo
[1] = test system: army worm caterpillars (Spodoptera frugiperda); test: Spodoptera frugiperda test (Example G); conditions: found effect, dipped cabbage leaves
Protocol: (§1) Spodoptera frugiperda Test
(§2) • Solvent: 7 parts by weight of dimethylformamide • Emulsifier: 2 parts by weight of alkylaryl polyglycol ether
(§3) Cabbage leaves (Brassica oleracea) are treated by being dipped into the active compound preparation of the desired concentration and are populated with army worm caterpillars (Spodoptera frugiperda) while the leaves are still moist.
(§4) After the desired period, the destruction in % is determined. 100% means that all of the caterpillars have been destroyed; 0% means that no caterpillars have been destroyed. The destruction values determined are calculated using Carpenter's formula.

[2] = test system: mustard beetle larvae (Phaedon cochleariae); test: Phaedon larvae test (Example F); conditions: found effect, dipped cabbage leaves
Protocol: as §2
(§5) After the desired period, the destruction in % is determined. 100% means that all of the beetle larvae have been destroyed; 0% means that no beetle larvae have been destroyed. The destruction values determined are calculated using Carpenter's formula.

[3] = test system: diamond-back moth caterpillars (Plutella xylostella, resistant strain); test: Plutella test, resistant strain (Example D); conditions: found effect, dipped cabbage leaves
Protocol: Plutella Test, Resistant Strain
as §2
Cabbage leaves (Brassica oleracea) are treated by being dipped into the active compound preparation of the desired concentration and are populated with diamond-back moth caterpillars (Plutella xylostella, resistant strain) while the leaves are still moist.
as §4

[4] = test system: army worm caterpillars (Spodoptera frugiperda); conditions: found effect, dipped cabbage leaves
Protocol: as §1
• Solvent: 7 parts by weight of dimethylformamide • Emulsifier: 2 parts by weight of alkylaryl polyglycol ether.
as §3, §4

[5] = test system: Heliothis armigera caterpillars; conditions: found effect, dipped soya bean shoots (Glycine max)
Protocol: as §2
Soya bean shoots (Glycine max) are treated by being dipped into the active compound preparation of the desired concentration and are populated with Heliothis armigera caterpillars while the leaves are still moist.
After the desired period, the destruction in % is determined. 100% means that all of the caterpillars have been destroyed; 0% means that no caterpillars have been destroyed. The destruction values determined are calculated using Carpenter's formula (see previous page).

[6] = test system: diamond-back moth caterpillars (Plutella xylostella, sensitive strain); test: Plutella test, sensitive strain (Example C); conditions: found effect, dipped cabbage leaves
Protocol: Plutella Test, Sensitive Strain
as §2
Cabbage leaves (Brassica oleracea) are treated by being dipped into the active compound preparation of the desired concentration and are populated with diamond-back moth caterpillars (Plutella xylostella, sensitive strain) while the leaves are still moist.
as §4

[7] = test system: mustard beetle larvae (Phaedon cochleariae); conditions: found effect, dipped cabbage leaves (Brassica oleracea)
Protocol: as §2, §5

| Molecule | LC95 after 6 days [1] [ppm] | LC95 after 6 days [2] [ppm] | LC95 after 6 days [3] [ppm] | LC50 after 6 days [4] [ppm] | LC50 after 6 days [5] [ppm] | LC95 after 6 days [6] [ppm] | LC50 after 6 days [7] [ppm] |
| --- | --- | --- | --- | --- | --- | --- | --- |
| CC[C@H](C)[C@H]1O[C@]2(C=C[C@@H]1C)C[C@@H]1C[C@@H](C/C=C(\C)[C@@H](O[C@H]3C[C@H](OC)[C@@H](O[C@H]4C[C@H](OC)[C@@H](O)[C@H](C)O4)[C@H](C)O3)[C@@H](C)/C=C/C=C3\CO[C@@H]4[C@H](O)C(C)=C[C@@H](C(=O)O1)[C@]34O)O2 [Avermectin, abamectin] | 30.104 | 0.345 |  |  |  |  |  |
| emamectin benzoate |  |  | 0.0033 | 0.0029 | 0.007 | 0.0009 | 0.026 |
